Source: the Deep4Chem optical property database

Test: photoluminescence quantum yield (fraction); solvent given as SMILES

SMILES: CCC1=C(C)C2=Cc3cc(I)cn3[B-](F)(F)[N+]2=C1C
- photoluminescence quantum yield (in C1CCCCC1): 0.113
- photoluminescence quantum yield (in CC(C)=O): 0.063
- photoluminescence quantum yield (in CCO): 0.07
- photoluminescence quantum yield (in CCOC(C)=O): 0.078
- photoluminescence quantum yield (in CO): 0.069
- photoluminescence quantum yield (in OCC(F)(F)F): 0.05

SMILES: CCCCCCCCCCCCn1cccc1/C=C/c1ccc(/C=C/c2cccn2CCCCCCCCCCCC)cc1
- photoluminescence quantum yield (in Cc1ccccc1): 0.32

SMILES: COc1ccc(-c2nc(-c3ccc(OC)cc3)n3ccccc23)cc1
- photoluminescence quantum yield (in ClC(Cl)Cl): 0.22

SMILES: CCCCn1c2ccccc2c2c1c1c3ccccc3n(CCCC)c1c1c3ccccc3n(CCCC)c21
- photoluminescence quantum yield (in C1CCOC1): 0.19

SMILES: N#Cc1cc2ccccc2oc1=N
- photoluminescence quantum yield (in C1CCOC1): 0.0681
- photoluminescence quantum yield (in CC#N): 0.00119
- photoluminescence quantum yield (in CCOC(C)=O): 0.0842
- photoluminescence quantum yield (in CS(C)=O): 0.00124
- photoluminescence quantum yield (in ClC(Cl)Cl): 0.0946

SMILES: COc1ccc(-c2cc3c(ccc(=O)n3C)s2)cc1
- photoluminescence quantum yield (in CC#N): 0.42
- photoluminescence quantum yield (in ClCCl): 0.83

SMILES: CC(C)[Si]1(C(C)C)c2cc(C#N)ccc2-c2ccc(N(c3ccccc3)c3ccccc3)cc21
- photoluminescence quantum yield (in C1CCCCC1): 0.64
- photoluminescence quantum yield (in CC#N): 0.67
- photoluminescence quantum yield (in CCO): 0.72
- photoluminescence quantum yield (in CCOCC): 0.74
- photoluminescence quantum yield (in CS(C)=O): 0.81
- photoluminescence quantum yield (in ClCCl): 0.8
- photoluminescence quantum yield (in c1ccccc1): 0.75

SMILES: C=Cc1cc2ccc(OC(=O)c3ccccc3)cc2oc1=O
- photoluminescence quantum yield (in CC#N): 0.23

SMILES: Fc1nc(F)c(F)c(C#Cc2ccccc2C#Cc2c(F)c(F)nc(F)c2F)c1F
- photoluminescence quantum yield (in CC#N): 0.63

SMILES: Cc1ccc(C2=C3C=CC([Se]c4ccccc4)=[N+]3[B-](F)(F)n3c([Se]c4ccccc4)ccc32)cc1
- photoluminescence quantum yield (in C1CCOC1): 0.56

SMILES: Cc1ccc2c(c1)nc1c(=O)n(C)c(=O)nc-1n2C
- photoluminescence quantum yield (in CC#N): 0.43

SMILES: c1ccc(N(c2ccccc2)c2ccc3ccc4c(N(c5ccccc5)c5ccccc5)ccc5ccc2c3c54)cc1
- photoluminescence quantum yield (in ClCCl): 0.78

SMILES: CC1=CC(C)=[N+]2C1=C(c1ccc(N(C)C)cc1)c1c(C)cc(/C=C/c3ccc(N(C)C)cc3)n1[B-]2(F)F
- photoluminescence quantum yield (in CCOCC): 0.78

SMILES: CCC1(CC)c2cc(C#Cc3cccs3)ccc2-c2c1c1c(c3c2C(CC)(CC)c2cc(C#Cc4cccs4)ccc2-3)C(CC)(CC)c2cc(C#Cc3cccs3)ccc2-1
- photoluminescence quantum yield (in C1CCOC1): 0.58

SMILES: C(#Cc1ccccc1)C(C#Cc1ccccc1)=Cc1cccc(C=C(C#Cc2ccccc2)C#Cc2ccccc2)c1
- photoluminescence quantum yield (in ClC(Cl)Cl): 0.06

SMILES: COc1ccc(-n2nc(C#N)c(N3CCCC3)n2)cc1
- photoluminescence quantum yield (in CC#N): 0.936
- photoluminescence quantum yield (in CO): 0.98

SMILES: CN(C)c1ccc(/C=C/c2nc(N3CCOCC3)c3c([n+]2[O-])CCCC3)cc1
- photoluminescence quantum yield (in ClCCl): 0.01

SMILES: CCCCCCN(CCCCCC)c1ccc(C#Cc2ccc(/C=C/c3ccc(-c4ccc(/C=C/c5ccc(C#Cc6ccc(N(CCCCCC)CCCCCC)cc6)cc5)cc4)cc3)cc2)cc1
- photoluminescence quantum yield (in Cc1ccccc1): 0.8

SMILES: COC(=O)c1ccc(/C=C2\C=C(c3ccc(OC)c(OC)c3)NC2=O)cc1
- photoluminescence quantum yield (in C1COCCO1): 0.363

SMILES: CCOC(=O)c1cc(C(=O)OCC)c2cc(NC(=O)C(F)(F)F)ccc2n1
- photoluminescence quantum yield (in CCO): 0.34

SMILES: CC1=CC(/C=C/c2ccccc2)=[N+]2C1=C(c1ccccc1)c1c(C)cc(/C=C/c3ccccc3)n1[B-]2(F)F
- photoluminescence quantum yield (in Cc1ccccc1): 0.59

SMILES: CC(C)[Si](C#Cc1ccc(C#C[Si](C(C)C)(C(C)C)C(C)C)c2nc3cc4c(cc3nc12)[C@H]1c2ccccc2[C@@H]4c2ccccc21)(C(C)C)C(C)C
- photoluminescence quantum yield (in CCCCCC): 0.02
- photoluminescence quantum yield (in ClCCl): 0.02

SMILES: CC1=CC(C)=[N+]2C1=C(c1c(-c3ccccn3)nc3ccccn13)c1c(C)cc(C)n1[B-]2(F)F
- photoluminescence quantum yield (in ClCCl): 0.635

SMILES: c1ccc(-c2nc(-c3ccccc3)nc(-c3cc(-n4c5ccccc5c5ncccc54)c(-n4c5ccccc5c5ncccc54)c(-n4c5ccccc5c5ncccc54)c3)n2)cc1
- photoluminescence quantum yield (in O=P(c1ccccc1)(c1ccccc1)c1ccc2oc3ccc(P(=O)(c4ccccc4)c4ccccc4)cc3c2c1): 0.54

SMILES: COc1ccc(-c2cc3c(ccc4sc5ccc6sccc6c5c43)s2)cc1
- photoluminescence quantum yield (in ClCCl): 0.12

SMILES: F[B-]1(F)n2c(c3cc4ccccc4cc3c2-c2ccccc2)C=C2c3cc4ccccc4cc3C(c3ccccc3)=[N+]21
- photoluminescence quantum yield (in C1CCOC1): 0.16
- photoluminescence quantum yield (in CN(C)C=O): 0.14
- photoluminescence quantum yield (in ClCCl): 0.16
- photoluminescence quantum yield (in c1ccccc1): 0.21

SMILES: CCCCN1c2ccc(/C=C/c3cc(=O)oc4cc(C)ccc34)cc2Sc2cc(/C=C/c3cc(=O)oc4cc(C)ccc34)ccc21
- photoluminescence quantum yield (in ClC(Cl)Cl): 0.83

SMILES: CCc1cccc(CC)c1-c1c2ccccc2c(-c2c(CC)cccc2CC)c2cc3ccccc3cc12
- photoluminescence quantum yield (in ClCCl): 0.56

SMILES: c1ccc(N(c2ccccc2)c2ccc(-c3ccc(-c4ccc(-c5ccc(-c6ccc(N(c7ccccc7)c7ccccc7)cc6)s5)c5nsnc45)s3)cc2)cc1
- photoluminescence quantum yield (in ClC(Cl)Cl): 0.23

SMILES: c1cc2cc(c1)c1ccc3ccc4ccc(cc4c3c1)c1ccc3ccc4ccc(cc4c3c1)c1cccc2c1
- photoluminescence quantum yield (in Cc1ccccc1): 0.92

SMILES: CCCCCCOc1ccc(N(c2ccc(OCCCCCC)cc2)c2ccc(-c3sc(-c4ccc(N(c5ccc(OCCCCCC)cc5)c5ccc(OCCCCCC)cc5)cc4)c4nc(-c5ccc(C(=O)OC)cc5)c(-c5ccc(C(=O)OC)cc5)nc34)cc2)cc1
- photoluminescence quantum yield (in CN(C)C=O): 0.021
- photoluminescence quantum yield (in ClC(Cl)Cl): 0.026

SMILES: CC(=O)Nc1ccc(S(=O)(=O)O)c(/N=N/c2c(O)c3ccccc3n(C)c2=O)c1
- photoluminescence quantum yield (in CS(C)=O): 0.03

SMILES: Cc1c2c(c(C)c3ccccc13)C1=C2C=CC2Nc3ccccc3NC12 (stereo unspecified)
- photoluminescence quantum yield (in ClC(Cl)Cl): 0.74

SMILES: c1cc2c3c(cccc3c1)C(N1CCOCCNCCOCCOCC1)=N2
- photoluminescence quantum yield (in CC#N): 0.0046
